Laboratory results from patent publication US20110152303A1, “Chemical Compounds” (GlaxoSmithKline LLC, priority 2009, published 2011).

Tested on: VSV-G pseudotyped, replication defective HIV vector (HIV IIIB) in CIP4 cells
Test: microbe, parasite or virus in culture
Format: cell-based
Conditions: Human immunodeficiency virus 1, CIP4, 48 h, read-out: IC50 in the PHIV assay

Compound: [2H]C([2H])([2H])c1cc(/C=C/C#N)cc(C([2H])([2H])[2H])c1Nc1ccnc(Nc2ccc(C#N)cc2)n1 [Compound D, (E)-4-((4-((4-(2-Cyanovinyl)-2,6-dimethylphenyl)amino)pyrimidin-2-yl)amino)benzonitrile-d6]
- IC50: 0.3 nM
